In the data set the target is T1, Broad substrate specificity ATP-binding cassette transporter ABCG2 (Homo sapiens, UniProt Q9UNQ0).
T1 sequence (Q9UNQ0 whole entry): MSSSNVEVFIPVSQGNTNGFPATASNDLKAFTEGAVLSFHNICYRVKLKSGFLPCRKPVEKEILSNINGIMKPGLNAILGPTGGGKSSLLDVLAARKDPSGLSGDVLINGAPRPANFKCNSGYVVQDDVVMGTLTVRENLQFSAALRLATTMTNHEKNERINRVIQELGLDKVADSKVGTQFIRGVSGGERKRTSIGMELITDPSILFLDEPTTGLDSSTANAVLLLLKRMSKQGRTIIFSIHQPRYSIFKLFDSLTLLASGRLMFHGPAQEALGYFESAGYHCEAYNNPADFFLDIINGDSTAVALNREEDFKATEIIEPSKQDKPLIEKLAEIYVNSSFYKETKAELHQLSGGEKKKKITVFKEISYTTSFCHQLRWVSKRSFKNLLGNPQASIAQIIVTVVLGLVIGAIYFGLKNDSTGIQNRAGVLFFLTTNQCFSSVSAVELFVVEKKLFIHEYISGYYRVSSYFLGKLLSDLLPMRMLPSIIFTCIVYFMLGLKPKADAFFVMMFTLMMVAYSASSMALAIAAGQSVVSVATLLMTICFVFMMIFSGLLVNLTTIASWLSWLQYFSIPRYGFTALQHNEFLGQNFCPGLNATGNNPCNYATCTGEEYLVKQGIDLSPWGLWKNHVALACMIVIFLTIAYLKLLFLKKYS
Description: TP_TRANSPORTER: correlation hBCRPmRNA with flavopiridol induced apoptosis resistance. Type of data set: functional, cell-based.

Molecules are shown by their SMILES.

`CN1CC[C@H](c2c(O)cc(O)c3c(=O)cc(-c4ccccc4Cl)oc23)[C@H](O)C1` [ALVOCIDIB]: the Activity entry was “substrate []”.

(Values after ChEMBL document CHEMBL2074435, “Quantitative analysis of breast cancer resistance protein and cellular resistance to flavopiridol in acute leukemia patients” (Clin Cancer Res, 2003).)
